Test results published in patent US8461328B2, “Tricyclic heterocyclic compounds, compositions and methods of use thereof” (Genentech, Inc., priority 2010, dated 2013).

Experiments:
Type in all cases: biochemical
[1] = target: T1, TYK2 (Homo sapiens, UniProt P29597); assay: TYK2 inhibition (Table 4)
T1 construct: made in house; host or cells: SF9 insect cells (baculovirus)
T1 sequence (P29597 873-1187): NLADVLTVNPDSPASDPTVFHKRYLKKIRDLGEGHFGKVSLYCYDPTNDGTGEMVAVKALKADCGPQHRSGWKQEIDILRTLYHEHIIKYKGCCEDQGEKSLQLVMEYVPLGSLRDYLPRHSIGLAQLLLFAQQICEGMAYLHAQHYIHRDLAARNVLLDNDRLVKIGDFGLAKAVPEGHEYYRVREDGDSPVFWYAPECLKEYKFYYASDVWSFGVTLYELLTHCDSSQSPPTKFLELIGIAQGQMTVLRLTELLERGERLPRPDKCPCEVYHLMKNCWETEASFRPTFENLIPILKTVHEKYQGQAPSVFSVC

[2] = target: T2, JAK1 (Homo sapiens, UniProt P23458); assay: JAK1 inhibition (Table 4); details: read-out: JAK1 Ki
T2 construct: made in house; host or cells: SF9 insect cells (baculovirus)
T2 sequence (P23458 852-1154): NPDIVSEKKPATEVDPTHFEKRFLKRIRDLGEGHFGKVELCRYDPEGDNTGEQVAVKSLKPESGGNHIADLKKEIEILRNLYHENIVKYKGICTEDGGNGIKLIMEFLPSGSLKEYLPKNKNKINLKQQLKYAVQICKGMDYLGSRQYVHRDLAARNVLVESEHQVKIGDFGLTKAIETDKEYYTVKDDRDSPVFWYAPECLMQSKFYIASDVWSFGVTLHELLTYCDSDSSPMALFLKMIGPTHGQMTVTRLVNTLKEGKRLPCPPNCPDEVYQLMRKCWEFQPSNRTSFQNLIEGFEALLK

[3] = target: T3, JAK3 (Homo sapiens, UniProt P52333); assay: JAK3 inhibition (Table 4); details: read-out: JAK3 Ki
T3 construct: made in house; host or cells: SF9 insect cells (baculovirus)
T3 sequence (P52333 783-1124): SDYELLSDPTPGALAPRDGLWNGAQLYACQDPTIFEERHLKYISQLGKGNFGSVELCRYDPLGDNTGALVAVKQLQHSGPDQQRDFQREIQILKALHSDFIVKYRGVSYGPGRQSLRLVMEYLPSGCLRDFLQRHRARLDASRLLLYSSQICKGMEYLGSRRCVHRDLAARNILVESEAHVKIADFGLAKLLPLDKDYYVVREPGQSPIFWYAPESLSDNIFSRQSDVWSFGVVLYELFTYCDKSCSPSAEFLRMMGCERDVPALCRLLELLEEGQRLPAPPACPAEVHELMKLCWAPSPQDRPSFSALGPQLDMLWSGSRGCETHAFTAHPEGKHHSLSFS

[4] = target: T4, JAK2 (Homo sapiens, UniProt O60674); assay: JAK2 inhibition (Table 4); details: read-out: JAK2 Ki
T4 construct: made in house; host or cells: SF9 insect cells (baculovirus)
T4 sequence (O60674 812-1132): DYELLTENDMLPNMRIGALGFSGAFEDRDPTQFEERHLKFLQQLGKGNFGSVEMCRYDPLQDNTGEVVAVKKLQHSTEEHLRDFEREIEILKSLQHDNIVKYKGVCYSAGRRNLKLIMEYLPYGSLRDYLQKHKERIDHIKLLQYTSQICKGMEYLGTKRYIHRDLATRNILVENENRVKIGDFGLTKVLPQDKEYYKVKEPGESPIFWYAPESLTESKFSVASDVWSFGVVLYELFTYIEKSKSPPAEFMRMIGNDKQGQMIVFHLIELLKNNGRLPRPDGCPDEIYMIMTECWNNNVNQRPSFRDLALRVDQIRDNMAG

| SMILES | Ki [1] [µM] | Ki [2] [µM] | Ki [3] [µM] | Ki [4] [µM] |
| --- | --- | --- | --- | --- |
| O=C(Cc1nc2cnc3[nH]ccc3c2n1C1CCCOC1)NCC(F)F (racemic) [Example 973, N-(2,2-Difluoro-ethyl)-2-[1-(tetrahydro-pyran-3-yl)-1,6-dihydro-1,3,5,6-tetraaza-as-indacen-2-yl]-acetamide] | 0.215 | 0.023 | 0.13 | 0.152 |
| O=C(Cc1nc2cnc3[nH]ccc3c2n1C1CCCOC1)N1CCN(CCO)CC1 (racemic) [Example 976, 1-[4-(2-Hydroxy-ethyl)-piperazin-1-yl]-2-[1-(tetrahydro-pyran-3-yl)-1,6-dihydro-1,3,5,6-tetraaza-as-indacen-2-yl]-ethanone] | 0.299 | 0.0321 | 0.208 | 0.405 |
| CC(=O)N1CCN(C(=O)Cc2nc3cnc4[nH]ccc4c3n2C2CCCOC2)CC1 (racemic) [Example 977, 1-(4-Acetyl-piperazin-1-yl)-2-[1-(tetrahydro-pyran-3-yl)-1,6-dihydro-1,3,5,6-tetraaza-as-indacen-2-yl]-ethanone] | 0.21 | 0.0282 | 0.195 | 0.363 |
| O=C(Cc1nc2cnc3[nH]ccc3c2n1C1CCCOC1)N1CCC(F)(F)CC1 (racemic) [Example 978, 1-(4,4-Difluoro-piperidin-1-yl)-2-[1-(tetrahydro-pyran-3-yl)-1,6-dihydro-1,3,5,6-tetraaza-as-indacen-2-yl]-ethanone] | 0.157 | 0.0174 | 0.124 | 0.305 |
| O=C(Cc1nc2cnc3[nH]ccc3c2n1C1CCCOC1)N1CCS(=O)(=O)CC1 (racemic) [Example 979, 1-(1,1-Dioxo-1$1%6&-thiomorpholin-4-yl)-2-[1-(tetrahydro-pyran-3-yl)-1,6-dihydro-1,3,5,6-tetraaza-as-indacen-2-yl]-ethanone] | 0.113 | 0.0155 | 0.127 | 0.238 |
| O=C(Cc1nc2cnc3[nH]ccc3c2n1C1CCCOC1)N1CCCOCC1 (racemic) [Example 980, 1-[1,4]Oxazepan-4-yl-2-[1-(tetrahydro-pyran-3-yl)-1,6-dihydro-1,3,5,6-tetraaza-as-indacen-2-yl]-ethanone] | 0.109 | 0.0788 | 0.3 | 0.506 |
| CN1CCC(NC(=O)Cc2nc3cnc4[nH]ccc4c3n2C2CCCOC2)CC1 (racemic) [Example 981, N-(1-Methyl-piperidin-4-yl)-2-[1-(tetrahydro-pyran-3-yl)-1,6-dihydro-1,3,5,6-tetraaza-as-indacen-2-yl]-acetamide] | 0.376 | 0.066 | 0.162 | 0.177 |
| O=C(Cc1nc2cnc3[nH]ccc3c2n1C1CCCOC1)N1CCCC(O)C1 (racemic) [Example 982, 1-(3-Hydroxy-piperidin-1-yl)-2-[1-(tetrahydro-pyran-3-yl)-1,6-dihydro-1,3,5,6-tetraaza-as-indacen-2-yl]-ethanone] | 0.273 | 0.0343 | 0.159 | 0.307 |
| O=C(Cc1nc2cnc3[nH]ccc3c2n1C1CCCOC1)N1CCC(CO)CC1 (racemic) [Example 984, 1-(4-Hydroxymethyl-piperidin-1-yl)-2-[1-(tetrahydro-pyran-3-yl)-1,6-dihydro-1,3,5,6-tetraaza-as-indacen-2-yl]-ethanone] | 0.253 | 0.0177 | 0.173 | 0.295 |
| O=C(Cc1nc2cnc3[nH]ccc3c2n1C1CCCOC1)N1CCC(O)CC1 (racemic) [Example 986, 1-(4-Hydroxy-piperidin-1-yl)-2-[1-(tetrahydro-pyran-3-yl)-1,6-dihydro-1,3,5,6-tetraaza-as-indacen-2-yl]-ethanone] | 0.187 | 0.0175 | 0.171 | 0.314 |
| Cc1nc2cnc3[nH]ccc3c2n1C1CCCCNC1 (racemic) [Example 987, 1-Azepan-3-yl-2-methyl-1,6-dihydro-1,3,5,6-tetraaza-as-indacene] | 0.267 | 0.0397 | 0.643 | 0.208 |
| N#CCCN1CCCCC(n2cnc3cnc4[nH]ccc4c32)C1 (racemic) [Example 989, 3-[3-(6H-1,3,5,6-Tetraaza-as-indacen-1-yl)-azepan-1-yl]-propionitrile] | 0.042 | 0.0109 | 0.0394 | 0.0146 |
| Cc1nc2cnc3[nH]ccc3c2n1C1CCc2nc[nH]c2C1 (racemic) [Example 990, 2-Methyl-1-(4,5,6,7-tetrahydro-3H-benzoimidazol-5-yl)-1,6-dihydro-1,3,5,6-tetraaza-as-indacene] | 0.325 | 0.0846 | 0.0919 | 0.204 |
| C[C@@H](O)c1nc2cnc3[nH]ccc3c2n1[C@H]1CC[C@@H](N2CCC(C#N)CC2)CC1 (relative stereo) [Example 611, Cis 1-{4-[2-(1-hydroxy-ethyl)-6H-1,2,3,5,6-tetraaza-as-indacen-1-yl]-cyclohexyl}-piperidine-4-carbonitrile] | 0.0496 | 0.00689 | 0.139 | 0.142 |
| Cc1nc2cnc3[nH]ccc3c2n1[C@@H]1C[C@@H]2CC[C@H]1O2 (relative stereo) [Example 684, Endo-2-Methyl-1-(7-oxa-bicyclo[2.2.1]hept-2-yl)-1,6-dihydro-1,2,3,5,6-tetraaza-as-indacene] | 0.0378 | 0.00757 | 0.0115 | 0.0216 |
| Cc1nc2cnc3[nH]ccc3c2n1C1CCC2CC(=O)NC2C1 (single isomer, unassigned) [Example 112, 6-(2-Methyl-6H-1,2,3,5,6-tetraaza-as-indacen-1-yl)-octahydro-indol-2-one] | 0.0175 | 0.00409 | 0.0634 | 0.0108 |
| Cc1nc2cnc3[nH]ccc3c2n1C1CCC2CC(=O)NC2C1 (single isomer, unassigned) [Example 112a, 6-(2-Methyl-6H-1,2,3,5,6-tetraaza-as-indacen-1-yl)-octahydro-indol-2-one] | 0.63 | 0.0644 | 0.3 | 0.0583 |

Results, then the molecule that gave them:

| Ki [1] [µM] | Ki [2] [µM] | Ki [3] [µM] | Ki [4] [µM] | SMILES |
| --- | --- | --- | --- | --- |
| 0.194 | 0.0256 | 0.0746 | 0.11 | O=C(Cc1nc2cnc3[nH]ccc3c2n1C1CCCOC1)NC1CCCC1 (racemic) [Example 974, N-Cyclopentyl-2-[1-(tetrahydro-pyran-3-yl)-1,6-dihydro-1,3,5,6-tetraaza-as-indacen-2-yl]-acetamide] |
| 0.406 | 0.0441 | 0.211 | 0.206 | O=C(Cc1nc2cnc3[nH]ccc3c2n1C1CCCOC1)NCCn1ccnc1 (racemic) [Example 975, N-(2-Imidazol-1-yl-ethyl)-2-[1-(tetrahydro-pyran-3-yl)-1,6-dihydro-1,3,5,6-tetraaza-as-indacen-2-yl]-acetamide] |
| 0.3 | 0.0376 | 0.1 | 0.157 | O=C(Cc1nc2cnc3[nH]ccc3c2n1C1CCCOC1)NC1CCOCC1 (racemic) [Example 983, N-(Tetrahydro-pyran-4-yl)-2-[1-(tetrahydro-pyran-3-yl)-1,6-dihydro-1,3,5,6-tetraaza-as-indacen-2-yl]-acetamide] |
| 0.175 | 0.0196 | 0.146 | 0.366 | O=C(Cc1nc2cnc3[nH]ccc3c2n1C1CCCOC1)N1CCSCC1 (racemic) [Example 985, 2-[1-(Tetrahydro-pyran-3-yl)-1,6-dihydro-1,3,5,6-tetraaza-as-indacen-2-yl]-1-thiomorpholin-4-yl-ethanone] |
| 0.0291 | 0.00419 | 0.00933 | 0.00623 | N#CCC(=O)N1CCCCC(n2cnc3cnc4[nH]ccc4c32)C1 (racemic) [Example 988, 3-Oxo-3-[3-(6H-1,3,5,6-tetraaza-as-indacen-1-yl)-azepan-1-yl]-propionitrile] |
| 0.0586 | 0.00926 | 0.109 | 0.0117 | N#CCCn1cc2c(n1)CCC(n1cnc3cnc4[nH]ccc4c31)C2 (racemic) [Example 991, 3-[5-(6H-1,3,5,6-Tetraaza-as-indacen-1-yl)-4,5,6,7-tetrahydro-indazol-2-yl]-propionitrile] |
| 0.647 | 0.154 | 0.704 | 0.292 | c1cc2c(ncc3ncn(C4CCCCNC4)c32)[nH]1 (single isomer, unassigned) [Example 110, 1-Azepan-3-yl-1,6-dihydro-1,2,3,5,6-tetraaza-as-indacene] |
| 0.106 | 0.0136 | 0.194 | 0.0818 | c1cc2c(ncc3ncn(C4CCCCNC4)c32)[nH]1 (single isomer, unassigned) [Example 110a, 1-Azepan-3-yl-1,6-dihydro-1,2,3,5,6-tetraaza-as-indacene] |
| 0.955 | 0.167 | 0.154 | 0.435 | CCC(COC)n1c(C(C)O)nc2cnc3[nH]ccc3c21 (single isomer, unassigned) [Example 182, 1-[1-(1-Methoxymethyl-propyl)-1,6-dihydro-1,2,3,5,6-tetraaza-as-indacen-2-yl]-ethanol] |
| 3.18 | 0.291 | 0.351 | 0.888 | CCC(COC)n1c(C(C)O)nc2cnc3[nH]ccc3c21 (single isomer, unassigned) [Example 182a, 1-[1-(1-Methoxymethyl-propyl)-1,6-dihydro-1,2,3,5,6-tetraaza-as-indacen-2-yl]-ethanol] |
